Source: US11234979B2, “Heteroaryl compounds as muscarinic M1 receptor positive allosteric modulators” (SUVEN LIFE SCIENCES LIMITED, priority 2017, dated 2022)

Assays:
[1] = Rodent pharmacokinetic study; type: in vivo, Male Wistar rats; settings: male, Wistar, rat, plasma
Procedure: Rodent Pharmacokinetic Study
Male Wistar rats (260±50 grams) were used as experimental animals. Animals were housed individually in polypropylene cage. Two days prior to study, male Wistar rats were anesthetized with isoflurane for surgical placement of jugular vein catheter. Rats were randomly divided for oral (3 mg/kg) and intravenous (i.v) (1 mg/kg) dosing (n=3/group) and fasted overnight before oral dosing (p.o.). However, rats allocated to intravenous (i.v.) dosing food and water was provided ad libitum.
At pre-determined point, blood was collected through jugular vein and replenished with an equivalent volume of normal saline. Collected blood was transferred into a labeled eppendorf tube containing 10 μL of heparin as an anticoagulant. Typically blood samples were collected at following time points: 0.08, 0.25, 0.5, 1, 2, 4, 6, 8, and 24 hours post dose. Blood was centrifuged at 4000 rpm for 10 minutes. Plasma was separated and stored frozen at −80° C. until analysis. The concentrations of the test compounds were quantified in plasma by qualified LC-MS/MS method using suitable extraction technique. The test compounds were quantified in the calibration range around 1-1000 ng/mL in plasma. Study samples were analyzed using calibration samples in the batch and quality control samples spread across the batch.
Pharmacokinetic parameters Cmax, AUCt, T1/2, clearance and bioavailability (F) were calculated by non-compartmental model using standard non-compartmental model by using Phoenix WinNonlin 6.0.2 or 6.0.3 version Software package.

[2] = Rodent brain penetration study; type: in vivo, Male Wistar rats; settings: male, Wistar, brain and plasma, po; rat, 3 mg/kg, p.o. @ 1.0 hr, brain-plasma ratio; read-out: Single dose Rat Brain Penetration (Cb/Cp)
Procedure: Rodent Brain Penetration Study
Male Wistar rats (260±40 grams) were used as experimental animals. Three animals were housed in each cage. Animals were given water and food ad libitum throughout the experiment and maintained on a 12 hours light/dark cycle.
Brain penetration was determined in discrete manner in rats. One day prior to dosing day, male Wistar rats were acclimatized and randomly grouped according to their weight. At each time point (0.5, 1 and 2 hours) n=3 animals were used.
The test compounds were suitably preformulated and administered orally at (free base equivalent) 3 mg/kg. Blood samples were removed via cardiac puncture by using isoflurane anesthesia. The animals were sacrificed to collect brain tissue. Plasma was separated and brain samples were homogenized and stored frozen at −20° C. until analysis. The concentrations of the test compounds in plasma and brain were determined using LC-MS/MS method.
The test compounds were quantified in plasma and brain homogenate by qualified LC-MS/MS method using suitable extraction technique. The test compounds were quantified in the calibration range of 1-500 ng/mL in plasma and brain homogenate. Study samples were analyzed using calibration samples in the batch and quality control samples spread across the batch.

## Cn1cc(-c2ccc(Cc3cc(C(=O)N[C@H]4CCCC[C@@H]4O)n4ncccc34)cc2)cn1 [Example 32, N-(cis-1S,2S-2-Hydroxycyclohexyl)-5-[4-(1-methyl-1H-pyrazol-4-yl)-benzyl]-pyrrolo [1,2-b]pyridazine-7-carboxamide]
[1]; iv, i.v. 1 mg/kg
  AUC(0-t): 3260 ± 802 ng·h/mL
  half-life: 3.2 ± 1.2 h
  clearance: 5.2 ± 1.4 mL/min/kg
[1]; oral 3 mg/kg vs i.v. 1 mg/kg, bioavailability
  bioavailability: 50 ± 17%
[1]; oral 3 mg/kg
  AUC(0-t): 4900 ± 1640 ng·h/mL
  Cmax: 650 ± 224 ng/mL
  half-life: 3.2 ± 0.4 h
[2]
  Kp at 1 h: 0.15 ± 0.02
